# From publication PMC11003488 (Journal of Enzyme Inhibition and Medicinal Chemistry, 2023)
# Several values for one entry are separate records, joined by “and”; a condition that tells them apart may be missing. Identical values can stand only once. Like-named read-outs stand apart in the source and are kept apart here.
# Tests used:
# SK-MEL-5 = test: NCI-60 SRB growth inhibition, one-dose and five-dose; assay type: cell-based; details: Homo sapiens
# Caspase-3 [1] = test: Protein level by ELISA assay in HCT-116; assay type: cell-based, human; details: HCT-116, IC50 of compound, 24 h, vs 0.1% DMSO
# [2] = system: Ovarian cancer cell lines; test: NCI-60 SRB growth inhibition, subpanel; assay type: cell-based, human; details: for GI50: Homo sapiens
# NCI-H460 = test: NCI-60 SRB growth inhibition, one-dose and five-dose; assay type: cell-based; details: Homo sapiens
# [3] = system: NCI 60-cell line panel (full panel); test: NCI-60 SRB growth inhibition, full panel mean / MG-MID; assay type: cell-based, human; details: for GI50: Homo sapiens, 60 cell
# Colon cancer cell lines = test: NCI-60 SRB growth inhibition, subpanel; assay type: cell-based, human; details: for GI50: Homo sapiens
# HCT-116 = test: NCI-60 SRB growth inhibition, one-dose and five-dose; assay type: cell-based; details: Homo sapiens
# HCT-116 (colon cancer) [4] = test: Cell cycle analysis by PI flow cytometry; assay type: cell-based, human; details: HCT-116, 24 h, IC50 of compound
# BT-549 = test: NCI-60 SRB growth inhibition, one-dose and five-dose; assay type: cell-based; details: Homo sapiens
# Breast cancer cell lines = test: NCI-60 SRB growth inhibition, subpanel; assay type: cell-based, human; details: for GI50: Homo sapiens
# CNS cancer cell lines = test: NCI-60 SRB growth inhibition, subpanel; assay type: cell-based, human; details: for GI50: Homo sapiens
# SK-OV-3 = test: NCI-60 SRB growth inhibition, one-dose and five-dose; assay type: cell-based; details: Homo sapiens
# Caspase-3 [5] = test: Gene expression by RT-qPCR in HCT-116; details: HCT-116, 24 h, IC50 of compound; vs 0.1% DMSO; 2^-ΔΔct
# HOP-92 = test: NCI-60 SRB growth inhibition, one-dose and five-dose; assay type: cell-based; details: Homo sapiens
# SF-539 = test: as above; assay type: cell-based; details: Homo sapiens
# OVCAR-5 = test: as above; assay type: cell-based; details: Homo sapiens
# SW-620 = test: as above; assay type: cell-based; details: Homo sapiens
# TK-10 = test: as above; assay type: cell-based; details: Homo sapiens
# UACC-62 = test: as above; assay type: cell-based; details: Homo sapiens
# Bax [6] = test: Protein level by ELISA assay in HCT-116; assay type: cell-based, human; details: HCT-116, IC50 of compound, 24 h, vs 0.1% DMSO
# [7] = Cytotoxicity towards normal fibroblasts, safety index; assay type: cell-based, human; details: human, WI-38 normal fibroblast cells
# [8] = system: WI-38 normal human fibroblast cells; test: as above; assay type: cell-based; details: WI-38 versus cancer cell lines
# HCT-116 (colon cancer) [9] = test: Apoptosis AV/PI assay by flow cytometry; assay type: cell-based, human; details: HCT-116, 24 h, IC50 of compound
# MDA-MB-231/ATCC = test: NCI-60 SRB growth inhibition, one-dose and five-dose; assay type: cell-based; details: Homo sapiens
# UO-31 = test: as above; assay type: cell-based; details: Homo sapiens
# [10] = system: Prostate cancer cell lines; test: NCI-60 SRB growth inhibition, subpanel; assay type: cell-based, human; details: for GI50: Homo sapiens
# SF-295 = test: NCI-60 SRB growth inhibition, one-dose and five-dose; assay type: cell-based; details: Homo sapiens
# Renal cancer cell lines = test: NCI-60 SRB growth inhibition, subpanel; assay type: cell-based, human; details: for GI50: Homo sapiens
# Leukaemia cell lines = test: NCI-60 SRB growth inhibition, subpanel; assay type: cell-based, human; details: for GI50: Homo sapiens
# DU-145 = test: NCI-60 SRB growth inhibition, one-dose and five-dose; assay type: cell-based; details: Homo sapiens
# Human VEGFR-2 = Human VEGFR-2 (Homo sapiens, UniProt P35968); test: VEGFR-2 inhibition assay; assay type: biochemical
# Chain of Human VEGFR-2 (P35968 20-1356): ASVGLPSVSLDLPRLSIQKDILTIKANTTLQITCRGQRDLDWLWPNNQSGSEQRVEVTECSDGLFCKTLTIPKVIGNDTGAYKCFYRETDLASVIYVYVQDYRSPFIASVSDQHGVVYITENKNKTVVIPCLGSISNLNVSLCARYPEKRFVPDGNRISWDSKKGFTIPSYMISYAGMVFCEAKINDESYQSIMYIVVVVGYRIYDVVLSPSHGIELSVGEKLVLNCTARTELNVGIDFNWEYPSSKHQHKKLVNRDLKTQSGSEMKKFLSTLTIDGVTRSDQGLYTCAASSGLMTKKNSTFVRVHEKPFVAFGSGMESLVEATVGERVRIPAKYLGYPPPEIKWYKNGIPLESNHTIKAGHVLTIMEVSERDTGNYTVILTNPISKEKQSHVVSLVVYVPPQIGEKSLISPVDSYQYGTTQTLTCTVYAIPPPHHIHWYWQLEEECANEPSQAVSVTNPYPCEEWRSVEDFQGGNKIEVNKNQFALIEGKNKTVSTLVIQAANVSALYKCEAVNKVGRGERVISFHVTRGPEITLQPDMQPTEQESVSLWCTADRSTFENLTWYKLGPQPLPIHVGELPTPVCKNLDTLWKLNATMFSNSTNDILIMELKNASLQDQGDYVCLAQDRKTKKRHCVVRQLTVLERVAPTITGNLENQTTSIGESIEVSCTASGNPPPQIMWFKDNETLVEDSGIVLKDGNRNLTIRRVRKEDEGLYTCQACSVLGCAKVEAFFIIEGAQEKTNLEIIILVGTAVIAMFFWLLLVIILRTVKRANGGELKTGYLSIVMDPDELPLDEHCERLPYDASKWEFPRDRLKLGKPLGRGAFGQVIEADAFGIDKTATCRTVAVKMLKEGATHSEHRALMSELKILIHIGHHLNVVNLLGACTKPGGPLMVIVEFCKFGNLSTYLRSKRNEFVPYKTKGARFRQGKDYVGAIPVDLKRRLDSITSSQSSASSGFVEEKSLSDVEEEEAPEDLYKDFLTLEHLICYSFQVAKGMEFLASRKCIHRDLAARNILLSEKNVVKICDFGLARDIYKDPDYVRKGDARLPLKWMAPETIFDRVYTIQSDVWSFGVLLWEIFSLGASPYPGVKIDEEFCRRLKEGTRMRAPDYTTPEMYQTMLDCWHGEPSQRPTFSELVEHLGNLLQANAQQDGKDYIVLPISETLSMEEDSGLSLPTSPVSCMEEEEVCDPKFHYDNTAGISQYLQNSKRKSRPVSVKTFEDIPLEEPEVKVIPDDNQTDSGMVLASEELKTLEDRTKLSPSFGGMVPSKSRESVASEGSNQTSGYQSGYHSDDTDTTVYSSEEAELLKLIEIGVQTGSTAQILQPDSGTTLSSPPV
# Bax [11] = test: Gene expression by RT-qPCR in HCT-116; details: HCT-116, 24 h
# TNF-α = test: Gene expression by RT-qPCR in HCT-116; details: HCT-116, 24 h, IC50 of compound; vs 0.1% DMSO; 2^-ΔΔct
# Melanoma cell lines = test: NCI-60 SRB growth inhibition, subpanel; assay type: cell-based, human; details: for GI50: Homo sapiens
# NSCLC cell lines = test: NCI-60 SRB growth inhibition, subpanel; assay type: cell-based, human; details: for GI50: Homo sapiens
# A549/ATCC = test: NCI-60 SRB growth inhibition, one-dose and five-dose; assay type: cell-based; details: Homo sapiens
# HOP-62 = test: as above; assay type: cell-based; details: Homo sapiens
compound,measurement,setting,value
"COc1ccc(CNc2cccc(C(=O)/C=C/c3ccc(NC(C)=O)cc3)c2)cc1OC [Compound 5h, (E)-N-(4–(3-(3-((3,4-dimethoxybenzyl)amino)phenyl)-3-oxoprop-1-en-1-yl)phenyl) acetamide]",GI50,SK-MEL-5; SK-MEL-5,4.13 µM
same,inhibition at 10 µM,"SK-MEL-5; SK-MEL-5, read-out: percent growth inhibition",126%
same,caspase-3 protein level,Caspase-3 [1],43.12 fold
same,GI50,[2]; read-out: GI50 MG-MID,5.75 µM
same,GI50,[2]; read-out: MG-MID GI50,5.75 µM
same,SI (Selectivity Index),[2]; full panel MG-MID / Ovarian Cancer subpanel MG-MID,0.78
same,GI50,NCI-H460; NCI-H460,2.1 µM
same,inhibition at 10 µM,"NCI-H460; NCI-H460, read-out: percent growth inhibition",143%
same,GI50,[3]; read-out: Full panel GI50 mean,4.48 µM
same,GI50,[3]; read-out: Full panel MG-MID GI50,4.48 µM
same,Full panel Mean GI %,"[3]; mean over NCI-60 panel, single dose 10 µM",108.5%
same,GI50,Colon cancer cell lines; read-out: GI50 MG-MID,3.24 µM
same,GI50,Colon cancer cell lines; read-out: MG-MID GI50,3.24 µM
same,SI (Selectivity Index),Colon cancer cell lines; full panel MG-MID / Colon Cancer subpanel MG-MID,1.38
same,GI50,"HCT-116; HCT-116, HCT-116 (colon cancer), five-dose assay",1.95 µM
same,GI50,"HCT-116; HCT-116, HCT-116, five-dose screening",0.78 µM
same,inhibition at 10 µM,"HCT-116; HCT-116, read-out: percent growth inhibition",174%
same,% G0-G1,HCT-116 (colon cancer) [4],35.12 ± 3.5%
same,% G2M,HCT-116 (colon cancer) [4],3.21 ± 1.1%
same,% S,HCT-116 (colon cancer) [4],4.91 ± 1.1%
same,% SubG0-G1,HCT-116 (colon cancer) [4],56.87 ± 7.7%
same,GI50,BT-549; BT-549,1.54 µM
same,inhibition at 10 µM,"BT-549; BT-549, read-out: percent growth inhibition",126%
same,GI50,Breast cancer cell lines; read-out: GI50 MG-MID,2.91 µM
same,GI50,Breast cancer cell lines; read-out: MG-MID GI50,2.91 µM
same,SI (Selectivity Index),Breast cancer cell lines; full panel MG-MID / Breast Cancer subpanel MG-MID,1.54
same,GI50,CNS cancer cell lines; read-out: GI50 MG-MID,5.22 µM
same,GI50,CNS cancer cell lines; read-out: MG-MID GI50,5.22 µM
same,SI (Selectivity Index),CNS cancer cell lines; full panel MG-MID / CNS Cancer subpanel MG-MID,0.86
same,GI50,SK-OV-3; SK-OV-3,20 µM
same,inhibition at 10 µM,"SK-OV-3; SK-OV-3, read-out: percent growth inhibition",75.5%
same,Caspase-3 gene expression fold change,Caspase-3 [5],0.002 fold
same,GI50,HOP-92; HOP-92,4.02 µM
same,inhibition at 10 µM,"HOP-92; HOP-92, read-out: percent growth inhibition",65.8%
same,GI50,SF-539; SF-539,2.31 µM
same,inhibition at 10 µM,"SF-539; SF-539, read-out: percent growth inhibition",174%
same,GI50,OVCAR-5; OVCAR-5,4.53 µM
same,inhibition at 10 µM,"OVCAR-5; OVCAR-5, read-out: percent growth inhibition",84.1%
same,GI50,SW-620; SW-620,2 µM
same,inhibition at 10 µM,"SW-620; SW-620, read-out: percent growth inhibition",157%
same,GI50,TK-10; TK-10,4.09 µM
same,inhibition at 10 µM,"TK-10; TK-10, read-out: percent growth inhibition",60.7%
same,GI50,UACC-62; UACC-62,3.9 µM
same,inhibition at 10 µM,"UACC-62; UACC-62, read-out: percent growth inhibition",130%
same,Bax protein level,Bax [6],2.96 fold
same,GI50 at 48 h,[7],> 100 µM
same,Safety index,[8],>1
same,% Early apoptotic cells (LR),HCT-116 (colon cancer) [9],0.24 ± 0.01%
same,% Late apoptotic cells (UL),HCT-116 (colon cancer) [9],64.62 ± 10.1%
same,% Necrotic cells (UR),HCT-116 (colon cancer) [9],2.25 ± 0.71%
same,% Viable cells (LL),HCT-116 (colon cancer) [9],32.89 ± 3.8%
same,GI50,MDA-MB-231/ATCC; MDA-MB-231,2.84 µM
same,inhibition at 10 µM,"MDA-MB-231/ATCC; MDA-MB-231, read-out: percent growth inhibition",89.4%
same,GI50,UO-31; UO-31,3 µM
same,inhibition at 10 µM,"UO-31; UO-31, read-out: percent growth inhibition",160%
same,GI50,[10]; read-out: GI50 MG-MID,3.53 µM
same,GI50,[10]; read-out: MG-MID GI50,3.53 µM
same,SI (Selectivity Index),[10]; full panel MG-MID / Prostatic Cancer subpanel MG-MID,1.27
same,GI50,SF-295; SF-295,7.83 µM
same,inhibition at 10 µM,"SF-295; SF-295, read-out: percent growth inhibition",84.1%
same,GI50,Renal cancer cell lines; read-out: GI50 MG-MID,3.99 µM
same,GI50,Renal cancer cell lines; read-out: MG-MID GI50,3.99 µM
same,SI (Selectivity Index),Renal cancer cell lines; full panel MG-MID / Renal Cancer subpanel MG-MID,1.12
same,GI50,Leukaemia cell lines; read-out: GI50 MG-MID,2.36 µM
same,GI50,Leukaemia cell lines; read-out: MG-MID GI50,2.36 µM
same,SI (Selectivity Index),Leukaemia cell lines; full panel MG-MID / leukaemia subpanel MG-MID,1.90
same,GI50,DU-145; DU-145,4.25 µM
same,inhibition at 10 µM,"DU-145; DU-145, read-out: percent growth inhibition",75.4%
same,IC50,Human VEGFR-2,0.31 ± 0.015 µM
same,Bax gene expression fold change,"Bax [11]; IC50 of compound, vs 0.1% DMSO, 2^-ΔΔct",30.06 ± 3.4 fold
same,Bax/Bcl-2 ratio,Bax [11]; ratio of gene expression fold changes,31.6
same,TNF-α gene expression fold change,TNF-α,2.2 fold and 2.20 ± 0.17 fold
same,GI50,Melanoma cell lines; read-out: GI50 MG-MID,4.44 µM
same,GI50,Melanoma cell lines; read-out: MG-MID GI50,4.44 µM
same,SI (Selectivity Index),Melanoma cell lines; full panel MG-MID / Melanoma subpanel MG-MID,1.01
same,GI50,NSCLC cell lines; read-out: GI50 MG-MID,8.91 µM
same,GI50,NSCLC cell lines; read-out: MG-MID GI50,8.91 µM
same,SI (Selectivity Index),NSCLC cell lines; full panel MG-MID / NSCLC subpanel MG-MID,0.50
same,GI50,A549/ATCC; A549,23.6 µM
same,inhibition at 10 µM,"A549/ATCC; A549, read-out: percent growth inhibition",77.3%
same,GI50,HOP-62; HOP-62,7.25 µM
same,inhibition at 10 µM,"HOP-62; HOP-62, read-out: percent growth inhibition",62.3%
